The target in assay [1] is T1, α4β1 integrin (Jurkat T-cell adhesion to IL-1 stimulated endothelial cell monolayers) (Homo sapiens, UniProt P05556+P13612).
T1 construct: a T-cell line, Jurkat, known to express the α4β1 integrin; host or cells: Jurkat T-cell line
In words: Jurkat-Endothelial Cell Adhesion Assay (Jurkat EC). The note with it: Jurkat cells on IL-1 stimulated HUVEC monolayers. It counts as cell-based. The method, then:
The following assay established the activity of the present compounds in inhibiting β1-mediated cell adhesion in a representative in vitro system. This assay measures the adhesive interactions of a T-cell line, Jurkat, known to express the α4β1 integrin, to endothelial monolayers in the presence of test compounds. The test compounds were added in increasing concentrations to T-cells and then the T-cell compound mixture was added to IL-1 stimulated endothelial cell monolayers. The plates were incubated, washed and the percentage of attached cells was quantitated. […] Human umbilical vein endothelial cells were purchased from Clonetics (San Diego, Calif.) at passage number 2. The cells were grown on 0.5% porcine skin gelatin pre-coated flasks (Sigma, St. Louis Mo.) in EGM-UV media (Clonetics, San Diego, Calif.) supplemented with 10% fetal bovine serum. Cells are refed every 2-3 days reaching confluence by day 4 to 6. […] The endothelial cells are not used following passage 6. Am The T-cell line Jurkat was obtained from American Type Tissue Culture Collection (Rockville, Md.) and the cells were cultured in RPMI containing 10% fetal calf serum. The cells were washed twice in Hank's Balanced Salt Solution (HBSS) and resuspended in Dulbecco's […] Eagle's Media (DMEM) containing 2.5 mg/ml Human Serum Albumin (HSA). Jurkat cells (1×10^6 cells/ml) were stained with 10 ng/ml BCECF-AM z z (Molecular Probes, Eugene, Ore.)) in HBSS without phenol red. The cells were loaded with BCECF for 60 minutes in the dark at 37° C., washed 2 times, and resusupended in DMEM-HSA solution.
Confluent endothelial monolayers, grown in 96-well tissue culture plates, were stimulated for 4 hr. at 37° C. with 0.1 ng/ml (˜50 U/ml) recombinant IL-1 (Amgen, Thousand Oaks, Calif.). Following this incubation, the monolayers were washed twice with HBSS and 0.1 ml of DMEM-HSA solution was added. Jurkat cells (5×10^5 cells) were combined with the appropriate concentration of the test compound and 0.1 ml of the Jurkat cell-compound mixture was added to the endothelial cell monolayers. Generally, 100, 20, 5 and 1.25 μM compound concentrations were tested. […] The plates were placed on ice for 5 minutes to allow for Jurkat cell settling and the plates were incubated at 37° C. for 20 minutes. Following this incubation, the monolayers were washed twice with PBS containing 1 mM calcium chloride and 1 mM magnesium chloride and the plates were read using a Millipore Cytofluor 2300 (Marlboro, Mass.). Fluorescence in each well was measured as Arbitrary Fluorescence Units and percent adhesion in the absence of compound was adjusted to 100% and the % adhesion in the presence of compound was calculated. Monolayers were also fixed in 3% paraformaldehyde and evaluated microscopically to verify the adhesion. This procedure is a modification of a previously published method (Cardarelli et al., J. Biol. Chem. 269:18668-18673 (1994)).

The target in assay [2] is T2, α4β1 integrin (Jurkat cell adhesion to immobilized CS-1 derived peptide CLHPGEILDVPST) (Homo sapiens, UniProt P05556+P13612).
T2 construct: 100 μl of Jurkat cells (2.5×10^6 cells/ml) in DMEM plus BSA; endogenous in cells; host or cells: Jurkat T-cell line
T2 sequence (P13612 34-1032): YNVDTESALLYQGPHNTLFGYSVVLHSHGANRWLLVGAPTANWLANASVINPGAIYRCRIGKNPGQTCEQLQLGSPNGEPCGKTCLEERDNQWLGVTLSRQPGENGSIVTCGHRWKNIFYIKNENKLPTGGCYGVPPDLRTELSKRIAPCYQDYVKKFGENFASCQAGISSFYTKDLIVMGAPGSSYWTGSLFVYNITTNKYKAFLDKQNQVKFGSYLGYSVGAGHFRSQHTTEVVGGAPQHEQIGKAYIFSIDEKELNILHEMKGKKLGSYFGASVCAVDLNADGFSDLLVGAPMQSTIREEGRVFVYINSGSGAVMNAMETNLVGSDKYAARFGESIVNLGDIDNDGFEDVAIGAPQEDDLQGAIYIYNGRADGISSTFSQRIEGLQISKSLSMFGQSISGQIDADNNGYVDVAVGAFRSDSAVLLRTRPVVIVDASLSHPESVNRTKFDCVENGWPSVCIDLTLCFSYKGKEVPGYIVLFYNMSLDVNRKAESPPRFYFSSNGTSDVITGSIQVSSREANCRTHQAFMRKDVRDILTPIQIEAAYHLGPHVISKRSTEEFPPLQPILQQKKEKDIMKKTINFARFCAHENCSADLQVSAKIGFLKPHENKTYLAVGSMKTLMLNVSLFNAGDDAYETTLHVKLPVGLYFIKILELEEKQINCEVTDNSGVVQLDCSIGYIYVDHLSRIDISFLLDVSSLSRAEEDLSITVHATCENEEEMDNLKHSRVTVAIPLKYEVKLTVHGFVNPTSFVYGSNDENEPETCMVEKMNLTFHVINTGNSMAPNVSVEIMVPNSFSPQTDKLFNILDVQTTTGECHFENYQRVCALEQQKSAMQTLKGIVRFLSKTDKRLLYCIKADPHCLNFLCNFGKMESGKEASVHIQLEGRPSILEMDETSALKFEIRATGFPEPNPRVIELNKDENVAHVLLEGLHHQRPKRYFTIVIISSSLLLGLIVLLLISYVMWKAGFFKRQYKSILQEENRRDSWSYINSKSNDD
T2 sequence (P05556 21-798): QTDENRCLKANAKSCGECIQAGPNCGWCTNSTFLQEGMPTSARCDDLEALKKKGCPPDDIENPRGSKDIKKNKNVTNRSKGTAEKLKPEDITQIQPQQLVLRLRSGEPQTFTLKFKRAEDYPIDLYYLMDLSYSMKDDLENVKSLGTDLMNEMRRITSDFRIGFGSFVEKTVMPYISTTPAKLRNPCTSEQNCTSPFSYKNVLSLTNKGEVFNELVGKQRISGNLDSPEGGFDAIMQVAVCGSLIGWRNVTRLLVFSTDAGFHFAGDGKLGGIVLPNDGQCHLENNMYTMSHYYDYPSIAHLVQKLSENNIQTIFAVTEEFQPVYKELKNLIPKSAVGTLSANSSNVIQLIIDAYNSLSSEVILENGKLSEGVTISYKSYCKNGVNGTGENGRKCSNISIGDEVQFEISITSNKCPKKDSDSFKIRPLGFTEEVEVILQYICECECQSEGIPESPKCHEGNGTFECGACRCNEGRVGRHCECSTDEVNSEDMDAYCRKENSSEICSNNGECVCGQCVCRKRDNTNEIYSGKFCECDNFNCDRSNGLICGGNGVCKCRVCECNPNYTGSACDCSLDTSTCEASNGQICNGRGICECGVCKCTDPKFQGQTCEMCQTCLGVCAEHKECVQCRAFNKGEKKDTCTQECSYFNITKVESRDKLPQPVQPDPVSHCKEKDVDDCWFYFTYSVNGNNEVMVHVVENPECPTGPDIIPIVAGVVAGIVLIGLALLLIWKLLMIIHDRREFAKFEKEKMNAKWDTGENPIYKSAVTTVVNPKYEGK
In words: Jurkat-CS-1 Assay. It counts as cell-based. The note with it: Jurkat cells on CS-1 peptide coated plates. As for the experimental part: The CS-1 derived peptide, CLHPGEILDVPST, and the scrambled control peptide, CLHGPIELVSDPT, were synthesized on a Beckman 990 synthesizer using t-Boc methodology. The peptides were immobilized onto microtiter plates using the heterobifunctional crosslinker 3-(2-pyridyldithio)propionic acid N-hydroxysuccinimide ester (SPDP) as reported by Pierschbacher et al., Proc. Natl. Acad. USA, 80:1224-1227 (1983). Microtiter plates were coated with 20 μg/ml HSA for 2 hr. at room temperature, washed once with PBS and derivatized with 10 μg/ml SPDP for 1 hr. After washing, 100 μl of a 100 μg/ml cysteine containing peptide solution which had been recently dissolved was added to the wells and allowed to crosslink to the plates overnight at 4° C. Unbound peptide was removed from plates by washing with PBS. To block non-reacted sites, the plates are coated with 100 μl of a 2.5 mg/ml BSA solution in PBS for 1 hr. at 37° C. 100 μl of Jurkat cells (2.5×10^6 cells/ml) in DMEM plus BSA (2.5 mg/ml) was mixed with an appropriate concentration of the compound to be tested and the mixture was added to peptide coated dishes and incubated for 1 hr. at 37° C. Generally 100, 20, 5 and 1.25 μM concentrations of the compound were tested.
Following this incubation the plates were washed once with PBS and the attached cells were fixed with 3% paraformaldehyde in PBS and stained with 0.5% toluidine blue in 3.7% formaldehyde. The cells were stained overnight at room temperature and the optical density at 590 nm of toluidine blue stained cells was determined using a vertical pathway spectrophotometer to quantitate attachment (VMAX Kinetic Microplate Reader, Molecular Devices, Menlo Park, Calif.). This procedure is a modification of a previously published method (Cardarelli et al, J. Biol. Chem., 269:18668-18673 (1994) and Cardarelli et al, Proc. Natl. Acad. Sci. USA, 83:2647-2651 (1986)).

pIC50: −log10 of the molar value. Structures can show the parent of a compound that is named as a salt.

T1 sequence (P13612 34-1032): as the sequence (P13612 34-1032) above
T1 sequence (P05556 21-798): as the sequence (P05556 21-798) above

A word on the pIC50: it is the IC50 on a negative log10 scale, so that one unit is a factor of ten. Higher therefore signals a small IC50. Turning to `CC1(C)[C@@H](C(=O)N[C@@H](Cc2ccc(NC(=O)c3c(Cl)cccc3Cl)cc2)C(=O)O)CC[C@@]1(C)C(=O)N[C@H](CCCCN)C(=O)O` (relative stereo) [Example 179], the negative logarithm of the IC50 (pIC50) in assay [1] was 5.00 to 5.30; in assay [2], at least 7.10. Take `C[C@H](NC(=O)[C@]1(C)CC[C@H](C(=O)N[C@@H](Cc2ccc(OCc3c(Cl)cccc3Cl)cc2)C(=O)O)C1(C)C)C(=O)O` (relative stereo) [Example 188, [1S-[1α, 3α(R)]]-N-[[3-[[(1-Carboxyethyl)amino]carbonyl]-2,2,3-trimethylcyclopentyl]carbonyl]-O-[(2,6-dichlorophenyl)methyl]-L-tyrosine]: the figures for the pIC50 in assay [1] and in assay [2] were 5.30 to 6.10 and 6.30 to 7.10, respectively. With `CC1(C)[C@@H](C(=O)N[C@@H](Cc2ccc(OCc3c(Cl)cccc3Cl)c(Cl)n2)C(=O)O)CC[C@@]1(C)C(=O)O` (relative stereo) [Example 194, [1S-[1α(R*),3α]]-α-[[(3-Carboxy-2,2,3-trimethylcyclopentyl)carbonyl]amino]-6-chloro-5-[(2,6-dichlorophenyl)methoxy]-2-pyridinepropanoic acid], the results for the pIC50 in assay [1] and in assay [2] were 5.30 to 6.10 and 6.30 to 7.10, respectively.

Turning to `C[C@H](NC(=O)[C@]1(C)CC[C@H](C(=O)N[C@@H](Cc2ccc(NC(=O)c3c(Cl)cccc3Cl)cc2)C(=O)O)C1(C)C)C(=O)O` (relative stereo) [Example 211, [1S-[1α,3α(S*)]]-N-[[3-[[(1-Carboxyethyl)amino]carbonyl]-2,2,3-trimethylcyclopentyl]carbonyl]-4-[(2,6-dichlorobenzoyl)amino]-L-phenylalanine], the pIC50 was at least 6.10 in assay [1] and at least 7.10 in assay [2].

As for `CC1(C)[C@@H](C(=O)N[C@@H](Cc2ccc(NC(=O)c3c(Cl)cccc3Cl)cc2)C(=O)O)CC[C@@]1(C)C(=O)N1CCC[C@@H]1C(N)=O` (relative stereo) [Example 212, [1S-[1α,3α(S*)]]-N-[3-[[2-(Aminocarbonyl)-1-pyrrolidinyl]carbonyl]-2,2,3-trimethylcyclopentyl]-carbonyl]-4-[(2,6-dichlorobenzoyl)amino]-L-phenylalanine monolithium salt], the pIC50 is 5.00 to 5.30 in assay [1] and 6.30 to 7.10 in assay [2]. Turning to `CC1(C)[C@@H](C(=O)N[C@@H](Cc2ccc(NC(=O)c3c(Cl)cccc3Cl)cc2)C(=O)O)CC[C@@]1(C)C(=O)N1CCC[C@H]1C(N)=O` (relative stereo) [Example 213, [1S-[1α,3α(R*)]]-N-[3-[[2-(Aminocarbonyl)-1-pyrrolidinyl]carbonyl]-2,2,3-trimethylcyclopentyl]-carbonyl]-4-[(2,6-dichlorobenzoyl)amino]-L-phenylalanine monosodium salt], the pIC50 in assay [1] was 5.30 to 6.10; in assay [2], 6.30 to 7.10.

On to `CNC(=O)[C@@H]1CCCN1C(=O)[C@]1(C)CC[C@H](C(=O)N[C@@H](Cc2ccc(NC(=O)c3c(Cl)cccc3Cl)cc2)C(=O)O)C1(C)C` (relative stereo) [Example 215, [1S-[1α,3α(R*)]]-N-[3-[[2-[(Methylamino)carbonyl]-1-pyrrolidinyl]carbonyl]-2,2,3-trimethyl-cyclopentyl]carbonyl]-4-[(2,6-dichlorobenzoyl)amino]-L-phenylalanine monosodium salt], for which the pIC50 was at least 6.10 in assay [1] and 6.30 to 7.10 in assay [2]. `CC1(C)[C@@H](C(=O)O)CC[C@@]1(C)NC(=O)N[C@]1(C)CC[C@H](C(=O)N[C@@H](Cc2ccc(NC(=O)c3c(Cl)cccc3Cl)cc2)C(=O)O)C1(C)C` (relative stereo) [Example 236, [1S-[1α,3α(1S*,3R*)-N-]]-N-[[3[[[(3-Carboxy-1,2,2-trimethylcyclopentyl)amino]carbonyl]-amino]-2,2,3-trimethylcyclopentyl]carbonyl]-4-[(2,6-dichlorobenzoyl)-amino]-L-phenylalanine]: the pIC50 was at least 6.10 in assay [1] and 6.30 to 7.10 in assay [2]. On the same counts, the results for `CC1(C)[C@@H](C(=O)N[C@H](Cc2ccc(OCc3c(Cl)cccc3Cl)cn2)C(=O)O)CC[C@@]1(C)C(=O)O` (relative stereo) [Example 254, [1S-[1α(R*),3α]]-α-[[(3-Carboxy-2,2,3-trimethylcyclopentyl)carbonyl]amino]-3-[(2,6-dichlorophenyl)methoxy]-6-pyridinepropanoic acid] are 5.30 to 6.10 and 6.30 to 7.10. On to `CC1(C)[C@@H](C(=O)N[C@@H](Cc2ccc(OCc3ccc4ccccc4c3)cc2)C(=O)O)CC[C@@]1(C)C(=O)O` [Example 10], for which the pIC50 in assay [1] was 5.30 to 6.10; in assay [2] it was 6.30 to 7.10. Turning to `CC1(C)[C@@H](C(=O)N[C@@H](Cc2cn(Cc3ccc(Cl)cc3Cl)cn2)C(=O)O)CC[C@@]1(C)C(=O)O` [Example 24], the results for the pIC50 in assay [1] and in assay [2] were 5.30 to 6.10 and 6.30 to 7.10, respectively. On the same counts, the results for `CC1(C)[C@@H](C(=O)N[C@@H](Cc2cn(Cc3c(Cl)cccc3Cl)cn2)C(=O)O)CC[C@@]1(C)C(=O)O` [Example 26] are 5.30 to 6.10 and 6.00 to 6.30. `CC1(C)[C@@H](C(=O)N[C@@H](Cc2cn(Cc3ccc(Cl)cc3)cn2)C(=O)O)CC[C@@]1(C)C(=O)O` [Example 28]: the pIC50 is 5.30 to 6.10 in assay [1] and 6.30 to 7.10 in assay [2]. Regarding `COc1ccc(Cn2cnc(C[C@H](NC(=O)[C@H]3CC[C@@](C)(C(=O)O)C3(C)C)C(=O)O)c2)cc1` [Example 31], the pIC50 in assay [1] was 5.00 to 5.30. `CC1(C)[C@@H](C(=O)N[C@@H](Cc2cn(Cc3ccccc3C(F)(F)F)cn2)C(=O)O)CC[C@@]1(C)C(=O)O` [Example 36]: the pIC50 is 5.00 to 5.30 in assay [1] and 6.00 to 6.30 in assay [2]. `CC1(C)[C@@H](C(=O)N[C@@H](Cc2cn(Cc3ccc4ccccc4c3)cn2)C(=O)O)CC[C@@]1(C)C(=O)O` [Example 38]: the pIC50 is 5.30 to 6.10 in assay [1] and 6.30 to 7.10 in assay [2]. Take `COC(=O)[C@H](Cc1ccc(NC(=O)c2c(Cl)cccc2Cl)cc1)NC(=O)[C@H]1CC[C@@](C)(C(=O)O)C1(C)C` [Example 53, (1S-cis)-N-[(3-Carboxy-2,2,3-trimethylcyclopentyl)carbonyl]-4-[(2,6-dichlorobenzoyl)amino]-L-phenylalanine methyl ester]: the pIC50 is 5.30 to 6.10 in assay [1] and 6.00 to 6.30 in assay [2]. In turn, `COC(=O)[C@H](Cc1ccc(NC(=O)c2ccccc2C)cc1)NC(=O)[C@H]1CC[C@@](C)(C(=O)O)C1(C)C` [Example 137] gave a pIC50 in assay [2] of 6.30 to 7.10.

The molecule `CC1(C)[C@H](C(=O)N[C@@H](Cc2ccc(OCc3c(Cl)cccc3Cl)cc2)C(=O)O)CC[C@]1(C)C(=O)O` [Example 189, (1R-cis)-N-[(3-Carboxy-2,2,3-trimethylcyclopentyl)carbonyl]-O-[(2,6-dichlorophenyl)methyl]-L-tyrosine] had a pIC50 in assay [1] of 5.30 to 6.10.

Values taken from patent US6482849B1, “Inhibitors of α4β1 mediated cell adhesion” (Tanabe Seiyaku Co., Ltd., priority 1997, dated 2002).
